US9907762B2, “Stabilized mutant opsin proteins” (University of Washington, priority 2003, dated 2018)
Entries after “also recorded” stand apart in the source; their conditions may differ.

Legend:
P23H-opsin [1] = target: T1, P23H-opsin (Bos taurus, UniProt P02699, P23H); assay: Immunocytochemistry, localization in HEK293 cells; format: cell-based; settings: immunofluorescence
T1 construct: expressed in transfected cells
Method: HEK293 cells expressing wild-type rhodopsin or P23H-opsin under a tetracycline-inducible promoter were cultured in Dulbecco's modified Eagle's medium (Invitrogen). The cells were attached to glass bottom microwell dishes (MatTek Corp.) with Cell-Tak (Becton Dickinson Labware). Expression of opsin or P23H-opsin was induced by the addition of 1 μg/ml tetracycline as recommended by the manufacturer's protocol (Invitrogen). […] The cells were harvested after 24 hours and fixed with 4% paraformaldehyde (Fisher) in PBS (136 mM NaCl, 11.4 mM sodium phosphate, pH 7.4) for 10 minutes and washed by PBS. To block nonspecific labeling, the cells were incubated in 1.5% normal goat serum (Vector Lab., Inc.) in PBST (136 mM NaCl, 11.4 mM sodium phosphate, 0.1% Triton X-100, pH 7.4) for 15 minutes at room temperature. The cells were incubated overnight at 4° C. in purified 1D4 antibody diluted with PBST. The sections were rinsed in PBST and incubated with indocarbocyanine (Cy3)-conjugated goat anti-mouse IgG (Jackson ImmunoResearch Lab., Inc.) and Hoechst 33342 dye (Molecular Probes). The cells were rinsed in PBST and mounted in 50 μl of 2% 1,4-diazabicyclo-[2.2.2]octane (Sigma) in 90% glycerol to retard photobleaching. For confocal imaging, the cells were analyzed on a Zeiss LSM510 laser scanning microscope (Carl Zeiss, Inc.).

P23H-opsin [2] = target: T1, P23H-opsin; assay: Pigment regeneration, retinals added to harvested cells/cell membranes; format: biochemical; settings: retinal added after the cells were harvested
Excerpt: (§1) For the construction and selection of tetracycline-inducible opsin cell lines, an Invitrogen T-REx™ system was used. Briefly, nucleic acids encoding wild-type opsin and the P23H mutant were excised as EcoRI-NotI fragments from pMT4 and then cloned into the EcoRI-NotI site within the polylinker of pcDNA4. Using opsin-specific forward and reverse primers, the entire gene was sequenced for verification. These plasmids were then separately transfected by calcium-phosphate precipitation into T-REx™-293 cells that already stably expressed the tetracycline repressor; these cells were routinely grown under blasticidin selection. After transfection, zeocin was added to the culture medium, and surviving colonies of cells were isolated and subsequently expanded into larger 6-well plates. Each of these clones was exposed to tetracycline, and 48 hours after induction, the cells were harvested and solubilized with 1% DM. Separately, uninduced cells were also solubilized. The samples were run on SDS-PAGE and immunoblotted with the monoclonal antibody 1D4. Cell lines were chosen on the basis of production of the least amount of opsin (i.e., nondetectable opsin levels on immunoblots) in the absence of tetracycline and moderate amounts of opsin in the presence of the drug. HEK293 cells were grown in Dulbecco's modified Eagle's medium containing high glucose (Invitrogen) at 37° C. in the presence of 5.0% CO2. In all of the studies, the cells were harvested after 48 hours of induction with tetracycline (1 μg/ml).
(§2) The cells were washed three times with PBS, harvested, and incubated with different analogs of 11-cis-retinal (50 μM) for 45 minutes at 4° C. The cells were then lysed with 1.0% n-dodecyl-maltoside (DM) (Anatrace) in the presence of protease inhibitors (complete protease inhibitor mixture tablets; Roche Molecular Biochemicals) and centrifuged at 36,000 rpm in a Beckman ultracentrifuge for 30 minutes at 4° C. The supernatant was incubated with 1D4-coupled CNBr-activated Sepharose 4B (Pharmacia Corp.) beads overnight. The beads were then washed three times with PBS containing 0.1% DM. Bound pigments were eluted off the beads using 0.1 mM synthetic peptide (last 9 amino acid residues of the C terminus of rhodopsin) in 0.1% DM. In studies when retinoids (50 μM) were added during biosynthesis, a Me2SO solution of retinoids (10 μl of 100 mM) was added directly to the cell culture medium after 2 and 24 hours of induction. The cells were harvested at 48 hours and lysed with 1.0% DM. Pigment was purified by immunoaffinity chromatography. The UV-visible spectra of the eluted pigment samples were then recorded on a Perkin Elmer Lambda 800 UV-visible spectrophotometer in the range of 250-650 nm.

wild-type opsin [3] = target: T2, wild-type opsin (Bos taurus, UniProt P02699); assay: as above; format: biochemical; settings: retinal 50 μM added to harvested cells, 45 minutes at 4° C.
T2 construct: expressed in transfected cells
Excerpt: as §1, §2

wild-type opsin [4] = target: T2, wild-type opsin; assay: Pigment formation, retinals added to cell culture medium during opsin biosynthesis; format: cell-based; settings: for pigment formation with wild-type opsin: retinal 50 μM added during biosynthesis; for absorbance max of the pigment formed with wild-type opsin: retinal added during biosynthesis, immunoaffinity purified
Excerpt: as §1, §2

P23H-opsin [5] = target: T1, P23H-opsin; assay: as above; format: cell-based; settings: for pigment formation / rescue of folding of P23H-opsin: retinal 50 μM added during biosynthesis; for absorbance max of the pigment formed with P23H-opsin: retinal added during biosynthesis, immunoaffinity purified
wild-type opsin [6] = target: T2, wild-type opsin; assay: Thermostability of pigments; format: biochemical; settings: incubation at either 4° C. or 37° C.
wild-type opsin [7] = target: T2, wild-type opsin; assay: Photosensitivity studies; format: biochemical
wild-type opsin [8] = target: T2, wild-type opsin; assay: Immunocytochemistry, localization in HEK293 cells; format: cell-based; settings: immunofluorescence
Method: HEK293 cells expressing wild-type rhodopsin or P23H-opsin under a tetracycline-inducible promoter were cultured in Dulbecco's modified Eagle's medium (Invitrogen). The cells were attached to glass bottom microwell dishes (MatTek Corp.) with Cell-Tak (Becton Dickinson Labware). Expression of opsin or P23H-opsin was induced by the addition of 1 μg/ml tetracycline as recommended by the manufacturer's protocol (Invitrogen). The cells were treated with 50 μM 11-cis-7-ring retinal 2 hours after induction. The cells were harvested after 24 hours and fixed with 4% paraformaldehyde (Fisher) in PBS (136 mM NaCl, 11.4 mM sodium phosphate, pH 7.4) for 10 minutes and washed by PBS. To block nonspecific labeling, the cells were incubated in 1.5% normal goat serum (Vector Lab., Inc.) in PBST (136 mM NaCl, 11.4 mM sodium phosphate, 0.1% Triton X-100, pH 7.4) for 15 minutes at room temperature. The cells were incubated overnight at 4° C. in purified 1D4 antibody diluted with PBST. The sections were rinsed in PBST and incubated with indocarbocyanine (Cy3)-conjugated goat anti-mouse IgG (Jackson ImmunoResearch Lab., Inc.) and Hoechst 33342 dye (Molecular Probes). […] For confocal imaging, the cells were analyzed on a Zeiss LSM510 laser scanning microscope (Carl Zeiss, Inc.).

P23H-opsin [9] = target: T1, P23H-opsin; assay: Glycosylation status by immunoblotting; format: cell-based; settings: retinal added during biosynthesis, immunoblot
Method: The samples were loaded on 10% SDS-polyacrylamide gels and transferred to Immobilon-NC membrane (Millipore) according to established protocols. The membranes were blocked with blocking buffer (Licor) for 1 hour and incubated at room temperature with 1D4 antibody (1:1000) for 1 hour. […] The membranes were then washed with PBS containing Tween 20 and scanned using an Odyssey Infrared imager (Licor).
The samples were incubated at 37° C. for 16 hours and then loaded onto a 10% polyacrylamide gel. The immunoblots were developed as described above.

P23H-opsin [10] = target: T1, P23H-opsin; assay: Retinoid analysis of the bound chromophore (HPLC, spectrophotometry); format: binding
Method: (§3) The mixture was kept at room temperature for 30 min, and then 400 μl of MeOH and 400 μl of hexane were added. The mixture was shaken on a vortex for 5 minutes and centrifuged at 14,000 rpm to separate layers. The hexane layer was collected. Another 400 μl of hexane was added to the aqueous layer, and extraction was repeated. Combined hexane layers were dried down and redissolved in 120 μl of hexane, and 100 μl fractions were analyzed by normal phase HPLC as previously described.

wild-type opsin [11] = target: T2, wild-type opsin; assay: as above; format: binding
Method: as §3

[12] = cell membranes, after photobleaching
[13] = mixture of the four 7-ring retinal isomers added during biosynthesis

How did the “cellular localization of P23H-opsin” value (P23H-opsin [1]) turn out when `CC1=C(/C=C/C(C)=C\C=C\C(C)=C\C=O)C(C)(C)CCC1` [9-cis-retinal] was run?
The value was “promoted transport of P23H-opsin to the cell surface”.

Which “pigment formation with P23H-opsin in cell membranes” value (P23H-opsin [2]) does the source give for 11-cis-6-ring retinal here?
The value was “only a small amount of pigment was formed”.

And the “regeneration of wild-type rhodopsin in cell membranes” value (wild-type opsin [3])?
Its value is “regeneration”.

What about the “pigment formation with wild-type opsin” value (wild-type opsin [4]) of the same molecule?
The value was “recombined with wild-type opsin”.

And the “pigment formation / rescue of folding of P23H-opsin” value (P23H-opsin [5])?
Its value is “No significant pigment; also recorded: lack of activity”.

How did the “temperature stability of purified pigment” value (wild-type opsin [6]) turn out when “7-rhodopsin: rhodopsin (wild-type opsin) regenerated with 11-cis-7-ring retinal” was run?
The value was “no change in the amount of chromophore”.

What about the “stability to light in cell membranes” value (wild-type opsin [7]; HEK293 cell membranes, 20 minutes light) of the same molecule?
Its value is “not bleached by light”.

And the “stability to light, purified in detergent” value (wild-type opsin [7]; purified pigment in detergent)?
The value was “stable to light”.

What about the “cellular localization of wild-type opsin pigment” value (wild-type opsin [8]) of the same molecule?
The value was “found predominantly at the plasma membrane”.

Which results are given for `CC1=C(/C=C/C(C)=C/C=C/C(C)=C/C=O)C(C)(C)CCC1` [11-cis-retinal]?
pigment formation with P23H-opsin in cell membranes (P23H-opsin [2]): only a small amount of pigment was formed; regeneration of wild-type rhodopsin in cell membranes (wild-type opsin [3]): regeneration; pigment formation with wild-type opsin (wild-type opsin [4]): regeneration; absorbance max of the pigment formed with wild-type opsin (wild-type opsin [4]): 499 nm; glycosylation of P23H-opsin (P23H-opsin [9]): acquired a mature state of glycosylation; pigment formation / rescue of folding of P23H-opsin (P23H-opsin [5]): induce the in vivo folding and stabilization of P23H-opsin; absorbance max of the pigment formed with P23H-opsin (P23H-opsin [5]): 492 nm

Which “pigment formation with P23H-opsin in cell membranes” value (P23H-opsin [2]) does the source give for 11-cis-7-ring retinal here?
Its value is “only a small amount of pigment was formed”.

What about the “regeneration of wild-type rhodopsin in cell membranes” value (wild-type opsin [3]) of the same molecule?
Its value is “regeneration”.

What about the “pigment formation with wild-type opsin” value (wild-type opsin [4]) of the same molecule?
Its value is “recombined with wild-type opsin”.

And the “absorbance max of the pigment formed with wild-type opsin” value (wild-type opsin [4])?
The value was “approximately 500±3 nm”.

And the “substitution of bound chromophore by added 11-cis-retinal” value (P23H-opsin [10]; [12])?
Its value is “did not lead to its substitution”.

And the “isomer bound by P23H-opsin” value (P23H-opsin [10]; [13])?
Its value is “selectively bound”.

What about the “substitution of bound chromophore by added 11-cis-retinal” value (wild-type opsin [11]; [12]) of the same molecule?
The value was “did not lead to its substitution”.

What about the “isomer bound by wild-type opsin” value (wild-type opsin [11]; [13]) of the same molecule?
The value was “selectively bound”.

What about the “glycosylation of P23H-opsin” value (P23H-opsin [9]) of the same molecule?
The value was “Golgi-associated glycosylation pattern similar to the wild-type protein”.

And the “pigment formation / rescue of folding of P23H-opsin” value (P23H-opsin [5])?
The value was “significant amounts of pigment”.

What about the “absorbance max of the pigment formed with P23H-opsin” value (P23H-opsin [5]) of the same molecule?
The value was “approximately 490±3 nm”.

What about the “fraction of P23H-opsin folded to form pigment (rescued)” value (P23H-opsin [5]; selective elution of folded form, 10 mM phosphate, pH 6.0, spectra and immunoblots) of the same molecule?
Its value is “approximately 80%”.

11-cis-9-demethyl-7-ring retinal was tested. Which “pigment formation / rescue of folding of P23H-opsin” value (P23H-opsin [5]) did it give?
The value was “ineffective in pigment formation”.

What about the “pigment formation / rescue of folding of P23H-opsin” value (P23H-opsin [5]; listed as 11-cis-9-demethyl-ring retinal) of the same molecule?
The value was “lack of activity”.
